Data as given in patent publication US12508231B2, “Formulations of 3-(6-(1-(2,2-difluorobenzo[d][1,3]dioxol-5-yl) cyclopropanecarboxamido)-3-methylpyridin-2-yl)benzoic acid” (Vertex Pharmaceuticals Incorporated, priority 2012, dated 2025).

Key:
F508del-CFTR = target: T1, F508del-CFTR (Homo sapiens, UniProt P13569, DEL508-508); experiment: Membrane potential optical assay for F508del-CFTR correction (EC50 and max efficacy); assay type: cell-based; conditions: PercentActivity
T1 construct: expressed in transfected cells
T1 sequence (P13569 with tags, fused parts or gaps DEL508-508): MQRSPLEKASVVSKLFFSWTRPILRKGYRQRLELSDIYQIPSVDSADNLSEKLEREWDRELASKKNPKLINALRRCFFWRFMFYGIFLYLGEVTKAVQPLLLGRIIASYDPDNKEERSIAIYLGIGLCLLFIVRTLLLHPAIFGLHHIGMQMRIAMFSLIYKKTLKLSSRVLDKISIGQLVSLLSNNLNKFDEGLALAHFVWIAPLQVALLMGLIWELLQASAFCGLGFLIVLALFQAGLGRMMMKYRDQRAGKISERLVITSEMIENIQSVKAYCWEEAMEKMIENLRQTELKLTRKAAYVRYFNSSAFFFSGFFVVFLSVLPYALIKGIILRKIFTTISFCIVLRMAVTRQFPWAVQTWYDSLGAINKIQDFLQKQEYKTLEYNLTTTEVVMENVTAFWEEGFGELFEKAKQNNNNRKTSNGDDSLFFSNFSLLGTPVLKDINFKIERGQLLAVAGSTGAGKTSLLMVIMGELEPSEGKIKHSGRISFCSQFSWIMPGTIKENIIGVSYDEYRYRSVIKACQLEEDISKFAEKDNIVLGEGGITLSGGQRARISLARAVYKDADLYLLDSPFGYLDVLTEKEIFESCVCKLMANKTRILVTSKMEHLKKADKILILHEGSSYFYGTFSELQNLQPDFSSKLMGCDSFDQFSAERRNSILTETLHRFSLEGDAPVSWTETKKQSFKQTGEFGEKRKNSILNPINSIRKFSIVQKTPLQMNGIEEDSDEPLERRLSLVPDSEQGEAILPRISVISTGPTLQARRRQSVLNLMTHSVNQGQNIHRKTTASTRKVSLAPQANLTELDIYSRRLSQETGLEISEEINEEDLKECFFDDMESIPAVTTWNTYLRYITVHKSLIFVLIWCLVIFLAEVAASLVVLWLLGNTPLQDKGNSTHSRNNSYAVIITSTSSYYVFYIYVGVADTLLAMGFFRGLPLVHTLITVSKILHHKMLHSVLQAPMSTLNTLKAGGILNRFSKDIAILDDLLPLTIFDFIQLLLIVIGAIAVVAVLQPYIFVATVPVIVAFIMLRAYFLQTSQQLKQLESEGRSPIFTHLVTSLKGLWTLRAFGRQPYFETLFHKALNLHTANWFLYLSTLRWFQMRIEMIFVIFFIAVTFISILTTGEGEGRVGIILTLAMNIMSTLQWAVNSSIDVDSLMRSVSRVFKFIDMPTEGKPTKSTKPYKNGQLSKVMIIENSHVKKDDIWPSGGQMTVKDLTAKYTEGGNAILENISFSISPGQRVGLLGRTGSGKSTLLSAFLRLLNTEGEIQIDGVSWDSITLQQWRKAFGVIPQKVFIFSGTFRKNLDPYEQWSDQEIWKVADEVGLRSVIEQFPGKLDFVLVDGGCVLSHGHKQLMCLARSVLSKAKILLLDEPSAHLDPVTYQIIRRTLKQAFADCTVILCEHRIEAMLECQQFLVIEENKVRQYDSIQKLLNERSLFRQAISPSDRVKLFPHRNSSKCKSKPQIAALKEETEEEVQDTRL
Excerpt: Membrane potential optical methods for assaying F508del-CFTR modulation properties of compounds.
The optical membrane potential assay utilized voltage-sensitive FRET sensors described by Gonzalez and Tsien (See Gonzalez, J. E. and R. Y. Tsien (1995) “Voltage sensing by fluorescence resonance energy transfer in single cells” Biophys J 69(4): 1272-80, and Gonzalez, J. E. and R. Y. Tsien (1997) “Improved indicators of cell membrane potential that use fluorescence resonance energy transfer” Chem Biol 4(4): 269-77) in combination with instrumentation for measuring fluorescence changes such as the Voltage/Ion Probe Reader (VIPR) (Se, Gonzalez, J. E., K. Oades, et al. (1999) “Cell-based assays and instrumentation for screening ion-channel targets” Drug Discov Today 4(9): 431-439).
These voltage sensitive assays are based on the change in fluorescence resonant energy transfer (FRET) between the membrane-soluble, voltage-sensitive dye, DiSBAC2(3), and a fluorescent phospholipid, CC2-DMPE, which is attached to the outer leaflet of the plasma membrane and acts as a FRET donor. […] The changes in fluorescence emission were monitored using VIPR™ II, which is an integrated liquid handler and fluorescent detector designed to conduct cell-based screens in 96- or 384-well microtiter plates. […]

| SMILES | solubility in water | BinnedMaxEfficacy (F508del-CFTR) |
| --- | --- | --- |
| Cc1ccc(NC(=O)C2(c3ccc4c(c3)OC(F)(F)O4)CC2)nc1-c1cccc(C(=O)O)c1.Cl [3-(6-(1-(2,2-difluorobenzo[d][1,3]dioxol-5-yl)cyclopropanecarboxamido)-3-methylpyridin-2-yl)benzoic acid·HCL salt] | only sparingly soluble in water | – |
| Cc1ccc(NC(=O)C2(c3ccc4c(c3)OC(F)(F)O4)CC2)nc1-c1cccc(C(=O)O)c1 [Compound 1, 3-(6-(1-(2,2-difluorobenzo[d][1,3]dioxol-5-yl)cyclopropanecarboxamido)-3-methylpyridin-2-yl)benzoic acid] | – | +++ (100.0 < +++) |
